The record followed here is paper PMC7036909, “Discovery of Selective SIRT2 Inhibitors as Therapeutic Agents in B-Cell Lymphoma and Other Malignancies” (Molecules, 2020).

By IC50 is commonly meant the concentration at which inhibition is half-maximal. Read a low IC50 as greater potency in that assay. The inhibition is the share of the control response that was lost under treatment.

In one experiment the target is T1, SIRT2 (Homo sapiens, UniProt Q8IXJ6).
T1 sequence (Q8IXJ6 1-389): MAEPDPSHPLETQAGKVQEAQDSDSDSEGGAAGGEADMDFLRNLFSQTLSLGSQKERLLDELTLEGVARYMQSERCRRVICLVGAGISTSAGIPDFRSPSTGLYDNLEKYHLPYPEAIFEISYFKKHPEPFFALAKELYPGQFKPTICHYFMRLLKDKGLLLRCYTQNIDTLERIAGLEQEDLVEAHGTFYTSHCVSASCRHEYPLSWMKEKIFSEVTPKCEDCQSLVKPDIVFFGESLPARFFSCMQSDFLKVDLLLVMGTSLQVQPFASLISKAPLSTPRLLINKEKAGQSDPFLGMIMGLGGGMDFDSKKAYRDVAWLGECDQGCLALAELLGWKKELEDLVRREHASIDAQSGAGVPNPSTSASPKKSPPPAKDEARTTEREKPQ
The experiment is described as follows: SIRT-Glo enzyme inhibition assay, SIRT2. The settings on record: for IC50: SIRT2 IC50; for inhibition at 50 µM: read-out: SIRT2 percentage inhibition at 50 µM compound, 50 µM compound.

The next experiment deals with T2, SIRT1 (Homo sapiens, UniProt Q96EB6).
T2 sequence (Q96EB6 1-747): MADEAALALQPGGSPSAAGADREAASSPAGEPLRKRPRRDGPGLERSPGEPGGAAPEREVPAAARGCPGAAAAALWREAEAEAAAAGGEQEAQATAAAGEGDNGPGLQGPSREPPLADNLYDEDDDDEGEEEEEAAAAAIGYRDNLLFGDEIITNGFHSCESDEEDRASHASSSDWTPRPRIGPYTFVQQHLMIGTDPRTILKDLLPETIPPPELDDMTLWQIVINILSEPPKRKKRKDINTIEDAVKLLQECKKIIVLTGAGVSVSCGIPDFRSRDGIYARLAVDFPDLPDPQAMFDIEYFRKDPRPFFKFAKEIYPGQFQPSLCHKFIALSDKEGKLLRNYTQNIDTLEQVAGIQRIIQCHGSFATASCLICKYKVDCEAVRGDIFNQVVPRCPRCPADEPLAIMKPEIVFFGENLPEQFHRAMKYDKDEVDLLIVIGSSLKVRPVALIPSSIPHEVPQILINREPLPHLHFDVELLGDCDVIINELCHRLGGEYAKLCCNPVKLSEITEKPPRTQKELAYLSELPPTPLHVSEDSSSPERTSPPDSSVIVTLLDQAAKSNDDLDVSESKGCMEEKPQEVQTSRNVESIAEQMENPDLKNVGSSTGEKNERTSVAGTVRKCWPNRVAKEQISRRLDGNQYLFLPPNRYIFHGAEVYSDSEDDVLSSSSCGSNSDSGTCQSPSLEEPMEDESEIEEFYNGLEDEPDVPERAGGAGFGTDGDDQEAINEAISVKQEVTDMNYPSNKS
The experiment in a line: SIRT-Glo enzyme inhibition assay, SIRT1. To be noted: for inhibition at 50 µM: read-out: SIRT1 percentage inhibition at 50 µM compound, 50 µM compound.

The target in a further experiment is T3, SIRT3 (Homo sapiens, UniProt Q9NTG7).
T3 sequence (Q9NTG7 1-399): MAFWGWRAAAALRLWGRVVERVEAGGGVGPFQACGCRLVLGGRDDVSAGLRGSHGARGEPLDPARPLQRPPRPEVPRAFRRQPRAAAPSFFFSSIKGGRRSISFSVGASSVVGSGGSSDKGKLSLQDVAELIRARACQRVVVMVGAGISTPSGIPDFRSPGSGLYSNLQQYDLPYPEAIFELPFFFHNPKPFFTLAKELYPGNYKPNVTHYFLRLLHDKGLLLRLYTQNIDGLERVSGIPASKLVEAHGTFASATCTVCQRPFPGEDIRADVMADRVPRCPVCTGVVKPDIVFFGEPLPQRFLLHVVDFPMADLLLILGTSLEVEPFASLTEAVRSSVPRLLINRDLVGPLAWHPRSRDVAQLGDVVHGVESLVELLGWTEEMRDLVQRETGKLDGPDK
The experiment in a line: SIRT-Glo enzyme inhibition assay, SIRT3. To be noted: read-out: SIRT3 percentage inhibition at 50 µM compound, 50 µM compound.

Method for SIRT1: (§1) SIRT1, SIRT2, and SIRT3 were purchased from Cayman Chemical. Enzyme inhibition assays were performed in 96-well black plates using the SIRT-Glo Assay (Promega Corp.) according to the manufacturer’s instructions. Compounds were dissolved in 100% DMSO and to make 5- or 10-mM stock solutions. For initial enzyme inhibition tests, 50 µM of inhibitory concentration was used. […] IC50 values were determined in triplicate and reported values are averages of two independent experiments.
Method for SIRT2: as §1
Method for SIRT3: as §1

Turning to “2-[(6-Bromo-2-hydroxynaphthalen-1-yl)methyl]-1-[4-(trifluoromethyl)phenyl]hex-5-yne-1,3-dione [Compound 46]”, the “SIRT2 percentage inhibition at 50 µM compound” value at SIRT2 is 88%. Moreover, the “SIRT1 percentage inhibition at 50 µM compound” value on SIRT1 came out at 28%.
On the same counts, the results for “2-[(6-Bromo-2-hydroxynaphthalen-1-yl)methyl]-3-(3-bromophenyl)-N-(furan-3-ylmethyl)-3-oxopropanamide [Compound 39]” are 30% and 13%.
On the same counts, the results for “2-[(6-Bromo-2-hydroxynaphthalen-1-yl)methyl]-3-(4-acetamidophenyl)-3-oxopropanamide [Compound 28]” are 58% and 0.0%.
In the case of `Cc1ccc(C(=O)C(Cc2c(O)ccc3cc(Br)ccc23)C(N)=O)cc1` (stereo not drawn) [Compound 4, 2-[(6-Bromo-2-hydroxynaphthalen-1-yl)methyl]-3-(4-methylphenyl)-3-oxopropanamide], the figures for the IC50 at SIRT2 and against SIRT1 were 13 µM and more than 200 µM, respectively. The values for the inhibition at 50 µM at SIRT2 and on SIRT1 were 89% and 9%, respectively.
For `Cc1cccc(C(=O)C(Cc2c(O)ccc3cc(Br)ccc23)C(N)=O)c1` (stereo not drawn) [Compound 16, 2-[(6-Bromo-2-hydroxynaphthalen-1-yl)methyl]-3-(3-methylphenyl)-3-oxopropanamide], the inhibition at 50 µM is 70% at SIRT2 and 38% on SIRT1.
On the same counts, the results for `Cc1ccccc1C(=O)C(Cc1c(O)ccc2cc(Br)ccc12)C(N)=O` (stereo not drawn) [Compound 17, 2-[(6-Bromo-2-hydroxynaphthalen-1-yl)methyl]-3-(2-methylphenyl)-3-oxopropanamide] are 3% and 0%.
As for `NC(=O)C(Cc1c(O)ccc2cc(Br)ccc12)C(=O)c1ccccc1` (stereo not drawn) [Compound 18, 2-[(6-Bromo-2-hydroxynaphthalen-1-yl)methyl]-3-oxo-3-phenylpropanamide], the inhibition at 50 µM at SIRT2 is 57%; on SIRT1, 0%.
Take `NC(=O)C(Cc1c(O)ccc2cc(Br)ccc12)C(=O)c1ccc(C(F)(F)F)cc1` (stereo not drawn) [Compound 20, 2-[(6-Bromo-2-hydroxynaphthalen-1-yl)methyl]-3-(4-trifluoromethylphenyl)-3-oxopropanamide]: the values for the inhibition at 50 µM on SIRT3, at SIRT2 and at SIRT1 were 5%, 100% and 0%, respectively. At SIRT2, inhibition was half-maximal at 1.9 µM (IC50).
For the compound `NC(=O)C(Cc1c(O)ccc2cc(Br)ccc12)C(=O)c1cccc(C(F)(F)F)c1` (stereo not drawn) [Compound 21, 2-[(6-Bromo-2-hydroxynaphthalen-1-yl)methyl]-3-(3-trifluoromethylphenyl)-3-oxopropanamide], the inhibition at 50 µM on SIRT3 worked out at 15%; at SIRT2, 89%; at SIRT1 it was 0%. The compound also showed an IC50 against SIRT2 of 12.6 µM.
Regarding `NC(=O)C(Cc1c(O)ccc2cc(Br)ccc12)C(=O)c1cccc(Br)c1` (stereo not drawn) [Compound 23, 2-[(6-Bromo-2-hydroxynaphthalen-1-yl)methyl]-3-(3-bromo)-3-oxopropanamide], the inhibition at 50 µM is 41% on SIRT3, 91% at SIRT2 and 53% on SIRT1. In addition, the IC50 on SIRT2 amounted to 8.95 µM.
On to `COc1ccc(C(=O)C(Cc2c(O)ccc3cc(Br)ccc23)C(N)=O)cc1` (stereo not drawn) [Compound 24, 2-[(6-Bromo-2-hydroxynaphthalen-1-yl)methyl]-3-(4-methoxy)-3-oxopropanamide], for which the values for the inhibition at 50 µM at SIRT2 and at SIRT1 were 72% and 34%, respectively.
Regarding `NC(=O)C(Cc1c(O)ccc2cc(Br)ccc12)C(=O)c1ccc(F)cc1` (stereo not drawn) [Compound 25, 2-[(6-Bromo-2-hydroxynaphthalen-1-yl)methyl]-3-(4-fluoro)-3-oxopropanamide], the inhibition at 50 µM was determined as 39% at SIRT3, 96% on SIRT2 and 35% on SIRT1. For the same compound, the IC50 against SIRT2 stood at 12.4 µM.
With `NC(=O)C(Cc1c(O)ccc2ccccc12)C(=O)c1cccc(Br)c1` (stereo not drawn) [Compound 29, 3-(3-Bromophenyl)-2-[(2-hydroxynaphthalen-1-yl)methyl]-3-oxopropanamide], the inhibition at 50 µM came to 14% at SIRT2 and 12% on SIRT1.
The corresponding values for `COc1ccc2c(CC(C(N)=O)C(=O)c3cccc(Br)c3)c(O)ccc2c1` (stereo not drawn) [Compound 30, 3-(3-Bromophenyl)-2-[(2-hydroxy-6-methoxynaphthalen-1-yl)methyl]-3-oxopropanamide] are 32% and 0%.
As for `NC(=O)C(Cc1c(O)c(Br)cc2ccccc12)C(=O)c1cccc(Br)c1` (stereo not drawn) [Compound 31, 2-[(3-Bromo-2-hydroxynaphthalen-1-yl)methyl]-3-(3-bromophenyl)-3-oxopropanamide], the inhibition at 50 µM came out at 37% on SIRT2 and 0% at SIRT1.
For the compound `NC(=O)C(Cc1c(O)ccc2ccc(Br)cc12)C(=O)c1cccc(Br)c1` (stereo not drawn) [Compound 32, 2-[(7-Bromo-2-hydroxynaphthalen-1-yl)methyl]-3-(3-bromophenyl)-3-oxopropanamide], the inhibition at 50 µM at SIRT2 came to 16%; at SIRT1, 0%.
Turning to `O=C(NCCO)C(Cc1c(O)ccc2cc(Br)ccc12)C(=O)c1cccc(Br)c1` (stereo not drawn) [Compound 36, 2-[(6-Bromo-2-hydroxynaphthalen-1-yl)methyl]-3-(3-bromophenyl)-N-(2-hydroxyethyl)-3-oxopropanamide], the inhibition at 50 µM at SIRT3 worked out at 43%; at SIRT2, 94%; at SIRT1, 0%. This compound also displayed an IC50 on SIRT2 of 4.75 µM.
`O=C(c1cccc(Br)c1)C(Cc1c(O)ccc2cc(Br)ccc12)C(=O)N1CCOCC1` (stereo not drawn) [Compound 38, 2-[(6-Bromo-2-hydroxynaphthalen-1-yl)methyl]-1-(3-bromophenyl)-3-(morpholin-4-yl)propane-1,3-dione]: the inhibition at 50 µM was 22% at SIRT2 and 1% on SIRT1.
As for `COCCNC(=O)C(Cc1c(O)ccc2cc(Br)ccc12)C(=O)c1cccc(Br)c1` (stereo not drawn) [Compound 41, 2-[(6-Bromo-2-hydroxynaphthalen-1-yl)methyl]-3-(3-bromophenyl)-N-(2-methoxyethyl)-3-oxopropanamide], the inhibition at 50 µM was determined as 53% at SIRT2 and 0% on SIRT1.
Regarding `O=C(NCc1cccnc1)C(Cc1c(O)ccc2cc(Br)ccc12)C(=O)c1cccc(Br)c1` (stereo not drawn) [Compound 42], the figures for the inhibition at 50 µM on SIRT2 and on SIRT1 were 6% and 3%, respectively.
With `CNC(=O)CCNC(=O)C(Cc1c(O)ccc2cc(Br)ccc12)C(=O)c1cccc(Br)c1` (stereo not drawn) [Compound 44, 2-[(6-Bromo-2-hydroxynaphthalen-1-yl)methyl]-3-(3-bromophenyl)-N-[2-(methylcarbamoyl)ethyl]-3-oxo-propanamide], at SIRT2, it took 6.5 µM to reach half-maximal inhibition (IC50) and the inhibition at 50 µM came to 98%. Moreover, the inhibition at 50 µM at SIRT1 was 0%.
For the compound `CN1CCN(C(=O)C(Cc2c(O)ccc3cc(Br)ccc23)C(=O)c2ccc(C(F)(F)F)cc2)CC1` (stereo not drawn) [Compound 45, 2-[(6-Bromo-2-hydroxynaphthalen-1-yl)methyl]-1-(4-methylpiperazin-1-yl)-3-[4-(trifluoromethyl)phenyl]-propane-1,3-dione], the inhibition at 50 µM at SIRT2 was 88%; at SIRT1, 10%.
